# Assay results as given in patent US8008294B2 (AstraZeneca AB, priority 2006, dated 2011).
# Structures can show the parent of a compound that is named as a salt.
# Tests used:
# Type in all cases: physicochemical
# [1] = Photo stability of bulk substance (Suntest CPS+ cabinet)
# Method: The exposure was 250 Wh/m^2 and 1.2 million lux hours over 29 hours.
# [2] = Solution stability (isotonic solution, HPLC analysis); conditions: 0.1 mg/ml isotonic solution, ascorbic acid 0.5% (w/v), pH 2 and 4, stored four weeks at 4 to 8° C.; citrate salt
# [3] = Hygroscopicity by Dynamic Vapour Sorption Analysis (DVS); conditions: 25° C., citrate salt
# Method: Dynamic Vapour Sorption Analysis (DVS)
# The studies were undertaken using Dynamic Vapour Sorption Appararatus (DVS, Surface Measurement Systems, London UK). The apparatus consists of Cahn micobalance housed inside a temperature-controled cabinet. All experiments were performed at 25° C. The DVS was used to characterize the moisture uptake (w/w %) at different relative humidities (RH). Samples (5-10 mg) were weighed directly into the DSV sample cup and exposed to different relative humidities.
# [4] = 29 hours control sample (stored in the dark)
# [5] = exposure time 29 hours, 250 Wh/m^2 and 1.2 million lux hours
"photo stability of bulk substance ([1]; 29 hours control sample (stored in the dark), citrate salt)","photo stability of bulk substance ([1]; exposure time 0 hours, citrate salt)","photo stability of bulk substance ([1]; exposure time 29 hours, 250 Wh/m^2 and 1.2 million lux hours, citrate salt)",degradation in solution [2],moisture uptake ([3]; 40% relative humidity),moisture uptake ([3]; 60% relative humidity),moisture uptake ([3]; 80% relative humidity),"photo stability of bulk substance [1, 4]",photo stability of bulk substance ([1]; exposure time 0 hours),"photo stability of bulk substance [1, 5]",Structure (SMILES)
99.1,99.0,98.1,no degradation products,7.1 w/w %,7.6 w/w %,8.0 w/w %,,,,"N#Cc1ccc2[nH]c(O)c(-c3ccc(CN4CCOCC4)cn3)c2c1 [Citrate, 2-Hydroxy-3-[5-(morpholin-4-ylmethyl)pyridin-2-yl]1H-indole-5-carbonitrile citrate salt]"
,,,,,,,96.1,96.6,83.8,"N#Cc1ccc2[nH]c(O)c(-c3ccc(CN4CCOCC4)cn3)c2c1 [Free base, 2-Hydroxy-3-[5-(morpholin-4-ylmethyl)pyridin-2-yl]1H-indole-5-carbonitrile]"
,,,,,,,97.7,97.5,89.0,N#Cc1ccc2[nH]c(O)c(-c3ccc(CN4CCOCC4)cn3)c2c1 [HCl]
